{
  "source": "a melting point compilation (Tetko et al.; mined from patent text by program, amines drawn as free bases though some values may be those of a salt)",
  "data": [
    {"units": {"melting point": "°C"}, "values": [
      {"smiles": "C=CN(C(=O)CCl)c1c(CC)cccc1CC", "melting point": "45 to 47"},
      {"smiles": "CCCCCCCCCCCCCCOc1ccc(OCc2ccccc2)c(C(=O)O)c1", "melting point": "73 to 74"},
      {"smiles": "O=C(NCCCn1ccnc1)Nc1ccc(Cl)cc1", "melting point": "123 to 125"},
      {"smiles": "CCCS(=O)(=O)c1ccc(NS(=O)(=O)c2cccs2)c2[nH]c(C(=O)OCC)cc12", "melting point": "201 to 202"},
      {"smiles": "COc1ccc(S(=O)(=O)Nc2ccccc2Nc2ccccc2)cc1", "melting point": "140 to 142"},
      {"smiles": "CC(C)COC(NC(=O)OCc1ccccc1)C(=O)O", "note": "(stereo not drawn)", "melting point": "66 to 68"},
      {"smiles": "O=C(Nc1ccccc1S(=O)(=O)F)NC1CCCCC1", "melting point": 177},
      {"smiles": "Cc1cc(-c2c(C)ccc(C(=S)OC(C)(C)C)c2C)on1", "melting point": "102 to 103"},
      {"smiles": "COC(=O)c1ccc2cc(C(=O)c3cc(OCc4ccc(F)cc4)c4c(c3)C(C)(C)CCC4(C)C)ccc2c1", "melting point": 179},
      {"smiles": "COC(=O)c1cnc(N2CCNC2=O)s1", "melting point": "205 to 208"},
      {"smiles": "CCCc1nc2c(N)nc3cccnc3c2n1CC1(O)CCCC1", "melting point": "184 to 186"},
      {"smiles": "CC=Cc1cn(C2CC(O)C(CO)O2)c(=O)[nH]c1=O", "note": "(stereo not drawn)", "melting point": 178},
      {"smiles": "CCC(=O)Nc1cccc(-c2ccnc3c(C(=O)c4ccccc4)cnn23)c1", "melting point": "172 to 174"},
      {"smiles": "COc1ccc(C=C2SC(=O)NC2=O)cc1C(=O)NCc1ccc(C(F)(F)F)cc1", "melting point": "210 to 212"},
      {"smiles": "CCCCCCCCOC1CCC(=O)N1", "note": "(stereo not drawn)", "melting point": "36 to 38"},
      {"smiles": "O=C(CCl)Nc1ccc2c(c1NC(=O)CCl)C(=O)c1ccccc1C2=O", "melting point": "254 to 255"},
      {"smiles": "COC(=O)N(C(S)=NC(C)C)c1c(C(C)C)cccc1C(C)C", "melting point": "98 to 99"},
      {"smiles": "COc1cc(O)c2c(=O)c(OC)c(-c3ccc(N)cc3)oc2c1", "melting point": 221},
      {"smiles": "Nc1ccc(-c2cc3c(N4CCc5ccccc54)ncnc3[nH]2)cc1", "melting point": "> 300"},
      {"smiles": "COC(=O)c1cc2c(NC3CCC(O)CC3)nc(-c3ccccc3)nc2[nH]1", "note": "(stereo not drawn)", "melting point": "225 to 227"},
      {"smiles": "CNc1ccc2cc(OC)ccc2c1N=O", "melting point": 261},
      {"smiles": "c1ccc2nc(COc3ccc4[nH]ccc4c3)ccc2c1", "melting point": "134 to 137"},
      {"smiles": "O=C(O)CCCCC(O)CCCl", "note": "(single isomer, unassigned; (-))", "melting point": "29 to 30"},
      {"smiles": "COc1ccc(C2=C(c3c4n(c5ccccc35)CCC(COC(C)=O)C4)C(=O)OC2=O)cc1", "note": "(stereo not drawn)", "melting point": "79 to 82"},
      {"smiles": "COC(=O)Cc1cccc2c(=O)cc(C3=CCCCC3)oc12", "melting point": "137 to 138"},
      {"smiles": "CCCc1cccc(=O)[nH]1", "melting point": "89 to 90"},
      {"smiles": "CC(=O)C=Cc1ccc(Cl)cc1Cl", "melting point": "79 to 80"},
      {"smiles": "CN(C)/C=N/c1nc(=O)n(C(=O)NCc2ccccc2)cc1F", "melting point": "147 to 150"},
      {"smiles": "CN(C)CCCNC(=O)[C@@H](Cc1ccc(-c2ccccc2)cc1)NC(=O)CC(C)(C)CC(=O)O", "melting point": "84 to 92"},
      {"smiles": "CCc1c2nc(-c3cc(S(C)(=O)=O)ccc3OCC(C)C)[nH]c(=O)c2nn1C1CCN(C)CC1", "melting point": "292 to 295"},
      {"smiles": "COc1cc(OCC(CO)CO)c(C=O)cc1-c1cccs1", "melting point": "144 to 145"},
      {"smiles": "COc1ccc(OC)c(C(=O)CC(O)C(=O)O)c1", "note": "(stereo not drawn)", "melting point": 89},
      {"smiles": "CC(=O)c1ccc(OCCCCCOc2ccc3c(=O)cc(C(=O)O)oc3c2)cc1O", "melting point": "226 to 228"},
      {"smiles": "COc1ccc(-c2ocnc2-c2cc(OC)c(Br)c(OC)c2)cc1N", "melting point": "180 to 184"},
      {"smiles": "Cc1ccc2c3c(ccc2n1)OCC(CN1CC=C(c2cc4ccccc4s2)CC1)O3", "note": "(stereo not drawn)", "melting point": "174 to 176"},
      {"smiles": "CCCn1c(-n2nc(-c3c(-c4ccccc4)nn4ccccc34)ccc2=O)cc(=O)n(CC(=O)OC)c1=O", "melting point": "191 to 195"},
      {"smiles": "COc1ccc(C(=O)Nc2ccccc2)cc1NCc1ccc(F)c(F)c1", "melting point": "150 to 152"},
      {"smiles": "CC1(C)CCC(C)(C)c2cc3c(=O)ccoc3cc21", "melting point": 202},
      {"smiles": "Cc1cc(Cl)c(-n2nc(C#N)c(-c3ccco3)c2N)c(Cl)c1", "melting point": 192},
      {"smiles": "COc1ccc(CN2C(=O)NC(=O)C2O)cc1OC", "note": "(stereo not drawn)", "melting point": "143 to 144"},
      {"smiles": "CCSC1=NCC(=O)N1c1cc(Cl)ccc1C", "melting point": "137 to 139"},
      {"smiles": "CCN1CCCC1CNS(=O)(=O)c1ccc(Nc2ccnc3cc(Cl)ccc23)cc1", "note": "(stereo not drawn)", "melting point": "200 to 202"},
      {"smiles": "Cn1c(CO)cc2cccc(F)c21", "melting point": "89 to 91"},
      {"smiles": "CC1(C2=C(O)C(=O)c3ccccc3C2=O)CCCC1", "melting point": "116 to 118"},
      {"smiles": "CCCc1c(O)ccc2c(OCc3ccccc3)cc(=O)oc12", "melting point": "213 to 214"},
      {"smiles": "CC1=C(C)C(=O)C(C(CCCCCC(=O)NCC(=O)O)c2ccccc2)=C(C)C1=O", "note": "(stereo not drawn)", "melting point": "162 to 164"},
      {"smiles": "CCCC(=O)c1cnc2c(CO)cccc2c1Nc1ccccc1C", "melting point": "148 to 150"},
      {"smiles": "O=C(O)Cc1ccc2c(c1)sc1ccc(Cl)cc12", "melting point": "220 to 221"},
      {"smiles": "OC(c1nn(-c2c(Cl)cc(C(F)(F)F)cc2Cl)cc1C1CC1(Br)Br)C(F)(F)F", "note": "(stereo not drawn)", "melting point": "119 to 121"},
      {"smiles": "CN1CCC(O)c2cccc(CSc3nc4ccccc4[nH]3)c21", "note": "(stereo not drawn)", "melting point": "144 to 145"},
      {"smiles": "NCC(O)COc1cccc(CN2CCCCC2)c1", "note": "(stereo not drawn)", "melting point": "74 to 76.5"},
      {"smiles": "CCN1C=C(C(=O)OC)C(=O)CC1c1ccc(OC)c(OC)c1", "note": "(stereo not drawn)", "melting point": "134 to 135"},
      {"smiles": "CC(C)S(=O)(=O)c1cc(OCc2ccccc2)c2[nH]nc(N)c2c1", "melting point": "179 to 180"},
      {"smiles": "O=C(c1ccccc1)C(Br)OCc1ccc(Cl)cc1Cl", "note": "(stereo not drawn)", "melting point": "89 to 91"},
      {"smiles": "COC(=O)CCC(=O)c1cc2c(s1)CCc1ccccc1C2=O", "melting point": "97 to 98"},
      {"smiles": "O=C(Nc1sc2c(c1C(=O)O)CCOC2)c1nn[nH]n1", "melting point": "> 250"},
      {"smiles": "CCCCCCCNC(=O)Nc1ccccc1C(=O)NCCC(c1ccccc1)c1ccccc1", "melting point": 118},
      {"smiles": "COc1ccc(OC)c(S(=O)(=O)n2c(CCC(=O)O)cc3cc(Cl)ccc32)c1", "melting point": "185 to 189"},
      {"smiles": "Cn1nnnc1-c1cn(C)c2cc(S(=O)c3ccccc3)ccc2c1=O", "note": "(stereo not drawn)", "melting point": "217 to 220"},
      {"smiles": "CC1CN(c2cc3c(cc2F)c(=O)c(C(=O)O)c2n3C(C)S2)CCN1C", "note": "(stereo not drawn)", "melting point": "198 to 201"},
      {"smiles": "CC(C)(C)OC(=O)N[C@@H](COC(=O)C(C)(C)C)Cc1ccccc1", "melting point": "59 to 60"},
      {"smiles": "Cc1c2c(c(C(C)(O)c3ccc(C(C)C)cc3)c(C)c1NC(=O)OC(C)(C)C)OCC2", "note": "(stereo not drawn)", "melting point": "185 to 186"},
      {"smiles": "Clc1ccc(C2C=Cc3cc(Br)cnc3O2)cc1Cl", "note": "(stereo not drawn)", "melting point": "100 to 101"},
      {"smiles": "CN1C(C(=O)Nc2ccccc2)=C(O)c2sc3ccccc3c2S1(=O)=O", "melting point": "261 to 263"},
      {"smiles": "CCCCN(c1nc(NCCN)nc(N(CCCC)C2CC(C)(C)NC(C)(C)C2)n1)C1CC(C)(C)NC(C)(C)C1", "melting point": 140},
      {"smiles": "CC(C)(C)c1ccc(C2OCC(CO)([N+](=O)[O-])CO2)cc1", "note": "(stereo not drawn)", "melting point": "90 to 92"},
      {"smiles": "CCOc1cc(C)c(CCl)c(C)c1C", "melting point": "63 to 64"},
      {"smiles": "O=c1[nH]c2ccc3c(c2[nH]1)OC(CO)CC3", "note": "(stereo not drawn)", "melting point": 240},
      {"smiles": "Cc1cccc(NC(=O)NC2N=C(c3ccccc3F)c3ccccc3N(Cc3ncccc3C(=O)N3CCCC3)C2=O)c1", "note": "(racemic)", "melting point": "153 to 155"},
      {"smiles": "CCCn1cc(Cc2ccc(C(=O)NS(=O)(=O)c3ccccc3C)cc2OC)c2cc(CCCC(=O)N(C)C)ccc21", "melting point": "94 to 96"},
      {"smiles": "COc1cc(COc2nn(-c3ccccc3)cc2/C=C/c2ccccn2)ccc1OCc1nc(-c2ccco2)oc1C", "melting point": "135 to 136"},
      {"smiles": "CCc1cccc2c1nc(-c1c(F)cccc1F)n2Cc1c(F)cccc1F", "melting point": "165 to 166"},
      {"smiles": "O=C1CN(SC(Cl)(Cl)Cl)C(=O)N1SC(Cl)(Cl)Cl", "melting point": 142}
    ]}
  ]
}
